Source: patent US12202823B2 (QUIMATRYX, S.L., priority 2019, dated 2025)

These molecules were tested against hHDAC6 (Homo sapiens (Human), UniProt Q9UBN7) (assay: HDAC6 inhibition protocol). Settings: read-out: IC50 (nM) of enzyme activity HDAC6; hHDAC6 1.20 nM, Acetylated Peptide A 2 μM, 1 hour at RT.
Chain of hHDAC6 (Q9UBN7 whole entry): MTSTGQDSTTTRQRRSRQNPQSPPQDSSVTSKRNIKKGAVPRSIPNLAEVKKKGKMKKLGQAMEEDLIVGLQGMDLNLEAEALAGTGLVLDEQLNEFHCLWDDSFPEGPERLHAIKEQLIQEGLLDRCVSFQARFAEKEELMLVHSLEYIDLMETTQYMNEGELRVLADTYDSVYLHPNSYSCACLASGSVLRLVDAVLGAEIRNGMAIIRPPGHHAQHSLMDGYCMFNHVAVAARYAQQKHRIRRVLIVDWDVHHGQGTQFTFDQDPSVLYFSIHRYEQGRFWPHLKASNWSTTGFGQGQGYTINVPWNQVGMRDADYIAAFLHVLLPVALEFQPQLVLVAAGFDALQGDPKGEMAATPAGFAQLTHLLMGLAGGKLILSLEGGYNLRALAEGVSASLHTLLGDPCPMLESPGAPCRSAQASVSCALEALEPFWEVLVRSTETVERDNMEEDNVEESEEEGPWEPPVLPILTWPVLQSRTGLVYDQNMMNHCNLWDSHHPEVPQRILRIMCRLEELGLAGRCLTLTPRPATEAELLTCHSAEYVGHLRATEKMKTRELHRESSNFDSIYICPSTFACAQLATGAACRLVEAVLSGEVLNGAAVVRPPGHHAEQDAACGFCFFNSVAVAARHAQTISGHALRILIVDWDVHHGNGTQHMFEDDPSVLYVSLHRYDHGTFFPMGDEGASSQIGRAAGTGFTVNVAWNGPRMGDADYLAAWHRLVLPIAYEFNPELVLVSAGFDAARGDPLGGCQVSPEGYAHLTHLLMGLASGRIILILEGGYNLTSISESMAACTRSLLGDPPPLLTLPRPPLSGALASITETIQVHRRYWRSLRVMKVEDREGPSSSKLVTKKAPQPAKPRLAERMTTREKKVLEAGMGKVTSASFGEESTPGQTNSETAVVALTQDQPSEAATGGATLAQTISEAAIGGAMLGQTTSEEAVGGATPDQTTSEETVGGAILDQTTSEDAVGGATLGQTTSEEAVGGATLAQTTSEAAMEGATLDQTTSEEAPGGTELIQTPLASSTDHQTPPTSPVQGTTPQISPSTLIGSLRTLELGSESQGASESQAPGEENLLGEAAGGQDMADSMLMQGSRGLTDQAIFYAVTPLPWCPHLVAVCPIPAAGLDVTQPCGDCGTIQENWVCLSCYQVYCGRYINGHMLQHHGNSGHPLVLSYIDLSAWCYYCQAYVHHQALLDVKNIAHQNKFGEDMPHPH
Protocol: After enzymatic reactions, reaction was stopped by adding 5 μl of 10 μM solution of a known inhibitor. The fluorescent signal of substrate and product was measured by means of microfluidics mobility assay in a EZ Reader II equipment. The percentage of conversion of substrate into product was calculated by the equipment software based on the area of the peaks.
The percentage of conversion data were analyzed using the computer software, Graphpad Prism. In the absence of the compound, the conversion (Ct) in each data set was defined as 100% activity. In the absence of HDAC, the conversion (Cb) in each data set was defined as 0% activity. The percent activity in the presence of each compound was calculated according to the following equation: % inhibition=(Ct−C)/(Ct−Cb), where C=the percentage of conversion in the presence of the compound.
The values of % inhibition versus a series of compound concentrations were then plotted using non-linear regression analysis of Sigmoidal dose-response curve generated with the equation Y=B+(T−B)/1+10((Log EC50−X)×Hill Slope), where Y=percent inhibition, B=minimum percent inhibition, T=maximum percent inhibition, X=logarithm of compound and Hill Slope=slope factor or Hill coefficient. The IC50 value was determined by the concentration causing a half-maximal percent activity.
The buffer assay used in the inhibition hHDAC6 assay is: Hepes 50 mM, KCl 100 mM, Tween 20 0.001%, BSA 0.01%; pH=7.4.

| IC50 | Structure (SMILES) |
| --- | --- |
| 3040 nM | FC(F)c1nnc(-c2ccc(Cn3ccc4ccccc43)cc2)o1 [Example 1, 2-(4-((1H-indol-1-yl)methyl)phenyl)-5-(difluoromethyl)-1,3,4-oxadiazole] |
| 1040 nM | FC(F)c1nnc(-c2ccc(Cn3ccc4ncccc43)cc2)o1 [Example 2, 2-(4-((1H-pyrrolo[3,2-b]pyridin-1-yl)methyl)phenyl)-5-(difluoromethyl)-1,3,4-oxadiazole] |
| 4910 nM | FC(F)c1nnc(-c2ccc(Cn3ccc4cnccc43)cc2)o1 [Example 3, 2-(4-((1H-pyrrolo[3,2-c]pyridin-1-yl)methyl)phenyl)-5-(difluoromethyl)-1,3,4-oxadiazole] |
| 1760 nM | FC(F)c1nnc(-c2ccc(Cn3ccc4cccnc43)cc2)o1 [Example 4, 2-(4-((1H-pyrrolo[2,3-b]pyridin-1-yl)methyl)phenyl)-5-(difluoromethyl)-1,3,4-oxadiazole] |
| 417 nM | FC(F)c1nnc(-c2ccc(Cn3ncc4ccccc43)cc2)o1 [Example 6, 2-(4-((1H-indazol-1-yl)methyl)phenyl)-5-(difluoromethyl)-1,3,4-oxadiazole] |
| 387 nM | FC(F)c1nnc(-c2ccc(Cn3cnc4ccccc43)cc2)o1 [Example 8, 2-(4-((1H-benzo[d]imidazol-1-yl)methyl)phenyl)-5-(difluoromethyl)-1,3,4-oxadiazole] |
| 236 nM | O=C(c1nc2cc(Cl)c(Cl)cc2n1Cc1ccc(-c2nnc(C(F)F)o2)cc1)C(F)F [Example 9, 1-(5,6-dichloro-1-(4-(5-(difluoromethyl)-1,3,4-oxadiazol-2-yl)benzyl)-1H-benzo[d]imidazol-2-yl)-2,2-difluoroethanone] |
| 60.2 nM | FC(F)c1nnc(-c2ccc(Cn3cnc4cc(Cl)c(Cl)cc43)cc2)o1 [Example 10, 2-(4-((5,6-dichloro-1H-benzo[d]imidazol-1-yl)methyl)phenyl)-5-(difluoromethyl)-1,3,4-oxadiazole] |
| 129 nM | FC(F)c1nnc(-c2ccc(Cn3nnc4ccc(Cl)cc43)cc2)o1 [Example 13, 2-(4-((6-chloro-1H-benzo[d][1,2,3]triazol-1-yl)methyl)phenyl)-5-(difluoromethyl)-1,3,4-oxadiazole] |
| 214 nM | CC1(C)C(=O)N(Cc2ccc(-c3nnc(C(F)F)o3)cc2)c2ccccc21 [Example 15, 1-(4-(5-(difluoromethyl)-1,3,4-oxadiazol-2-yl)benzyl)-3,3-dimethylindolin-2-one] |
| 258 nM | O=C1c2ccccc2C(=O)N1Cc1ccc(-c2nnc(C(F)F)o2)cc1 [Example 16, 2-(4-(5-(difluoromethyl)-1,3,4-oxadiazol-2-yl)benzyl)isoindoline-1,3-dione] |
| 920 nM | FC(F)c1nnc(-c2ccc(Cn3nnnc3-c3ccccc3)cc2)o1 [Example 17, 2-(difluoromethyl)-5-(4-((5-phenyl-1H-tetrazol-1-yl)methyl)phenyl)-1,3,4-oxadiazole] |
| 1160 nM | O=c1n(-c2ccccc2)cnn1Cc1ccc(-c2nnc(C(F)F)o2)cc1 [Example 18, 1-(4-(5-(difluoromethyl)-1,3,4-oxadiazol-2-yl)benzyl)-4-phenyl-1H-1,2,4-triazol-5(4H)-one] |
| 229 nM | O=C1N(Cc2ccc(-c3nnc(C(F)F)o3)cc2)c2ccccc2C12CCOCC2 [Example 19] |
| 589 nM | CC(c1ccc(-c2nnc(C(F)F)o2)cc1)n1cnc2ccccc21 (centres unmarked) [Example 20, 2-(4-(1-(1H-benzo[d]imidazol-1-yl)ethyl)phenyl)-5-(difluoromethyl)-1,3,4-oxadiazole] |
| 103 nM | FC(F)c1nnc(-c2ccc(Cn3nnc4ccccc43)nc2)o1 [Example 21, 2-(6-((1H-benzo[d][1,2,3]triazol-1-yl)methyl)pyridin-3-yl)-5-(difluoromethyl)-1,3,4-oxadiazole] |
| 190 nM | FC(F)c1nnc(-c2ccc(Cn3nnc4cccnc43)nc2)o1 [Example 23, 2-(6-((3H-[1,2,3]triazolo[4,5-b]pyridin-3-yl)methyl)pyridin-3-yl)-5-(difluoromethyl)-1,3,4-oxadiazole] |
| 48.3 nM | FC(F)c1nnc(-c2ccc(Cn3cnc(-c4ccccc4)c3)nc2)o1 [Example 26, 2-(difluoromethyl)-5-(6-((4-phenyl-1H-imidazol-1-yl)methyl)pyridin-3-yl)-1,3,4-oxadiazole] |
| 2800 nM | COC(=O)c1cn(Cc2ccc(-c3nnc(C(F)F)o3)cc2)nn1 [Example 28, methyl 1-(4-(5-(difluoromethyl)-1,3,4-oxadiazol-2-yl)benzyl)-1H-1,2,3-triazole-4-carboxylate] |
| 95.6 nM | FC(F)c1nnc(-c2ccc(Cn3cc(-c4ccc(Cl)cc4)nn3)cc2)o1 [Example 29, 2-(4-((4-(4-chlorophenyl)-1H-1,2,3-triazol-1-yl)methyl)phenyl)-5-(difluoromethyl)-1,3,4-oxadiazole] |

| IC50 | Structure (SMILES) |
| --- | --- |
| 238 nM | FC(F)c1nnc(-c2ccc(Cn3cc(-c4ccc(C(F)(F)F)cc4)nn3)cc2)o1 [Example 30, 2-(difluoromethyl)-5-(4-((4-(4-(trifluoromethyl)phenyl)-1H-1,2,3-triazol-1-yl)methyl)phenyl)-1,3,4-oxadiazole] |
| 273 nM | CC(C)(C)c1cn(Cc2ccc(-c3nnc(C(F)F)o3)cc2)nn1 [Example 31, 2-(4-((4-(tert-butyl)-1H-1,2,3-triazol-1-yl)methyl)phenyl)-5-(difluoromethyl)-1,3,4-oxadiazole] |
| 475 nM | FC(F)c1nnc(-c2ccc(Cn3cc(C4CCCCC4)nn3)cc2)o1 [Example 32, 2-(4-((4-cyclohexyl-1H-1,2,3-triazol-1-yl)methyl)phenyl)-5-(difluoromethyl)-1,3,4-oxadiazole] |
| 188 nM | FC(F)c1nnc(-c2ccc(Cn3cc(-c4ccncc4)nn3)cc2)o1 [Example 33, 2-(difluoromethyl)-5-(4-((4-(pyridin-4-yl)-1H-1,2,3-triazol-1-yl)methyl)phenyl)-1,3,4-oxadiazole] |
| 202 nM | FC(F)c1nnc(-c2ccc(Cn3cc(-c4cccnc4)nn3)cc2)o1 [Example 34, 2-(difluoromethyl)-5-(4-((4-(pyridin-3-yl)-1H-1,2,3-triazol-1-yl)methyl)phenyl)-1,3,4-oxadiazole] |
| 131 nM | FC(F)c1nnc(-c2ccc(Cn3cc(-c4ccsc4)nn3)cc2)o1 [Example 35, 2-(difluoromethyl)-5-(4-((4-(thiophen-3-yl)-1H-1,2,3-triazol-1-yl)methyl)phenyl)-1,3,4-oxadiazole] |
| 105 nM | FC(F)c1nnc(-c2ccc(Cn3cc(-c4cccs4)nn3)cc2)o1 [Example 36, 2-(difluoromethyl)-5-(4-((4-(thiophen-2-yl)-1H-1,2,3-triazol-1-yl)methyl)phenyl)-1,3,4-oxadiazole] |
| 149 nM | CC(c1ccc(-c2nnc(C(F)F)o2)cc1)n1cc(-c2ccccc2)nn1 (centres unmarked) [Example 37, 2-(difluoromethyl)-5-(4-(1-(4-phenyl-1H-1,2,3-triazol-1-yl)ethyl)phenyl)-1,3,4-oxadiazole] |
| 266 nM | FC(F)c1nnc(-c2ccc(Cn3nnc(-c4ccccc4)c3-c3ccccc3)cc2)o1 [Example 38, 2-(difluoromethyl)-5-(4-((4,5-diphenyl-1H-1,2,3-triazol-1-yl)methyl)phenyl)-1,3,4-oxadiazole] |
| 366 nM | Cc1c(-c2ccccc2)nnn1Cc1ccc(-c2nnc(C(F)F)o2)cc1 [Example 39, 2-(difluoromethyl)-5-(4-((5-methyl-4-phenyl-1H-1,2,3-triazol-1-yl)methyl)phenyl)-1,3,4-oxadiazole] |
| 686 nM | Cc1nnn(Cc2ccc(-c3nnc(C(F)F)o3)cc2)c1-c1ccccc1 [Example 40, 2-(difluoromethyl)-5-(4-((4-methyl-5-phenyl-1H-1,2,3-triazol-1-yl)methyl)phenyl)-1,3,4-oxadiazole] |
| 40.9 nM | FC(F)c1nnc(-c2ccc(Cn3cc(-c4ccccc4)nn3)nc2)o1 [Example 41, 2-(difluoromethyl)-5-(6-((4-phenyl-1H-1,2,3-triazol-1-yl)methyl)pyridin-3-yl)-1,3,4-oxadiazole] |
| 1990 nM | FC(F)c1nnc(-c2ccc(Cn3cc(-c4ccccc4)nn3)cn2)o1 [Example 42, 2-(difluoromethyl)-5-(5-((4-phenyl-1H-1,2,3-triazol-1-yl)methyl)pyridin-2-yl)-1,3,4-oxadiazole] |
| 43.1 nM | FC(F)c1nnc(-c2ccc(Cn3cc(-c4ccc(Cl)cc4)nn3)nc2)o1 [Example 43, 2-(6-((4-(4-chlorophenyl)-1H-1,2,3-triazol-1-yl)methyl)pyridin-3-yl)-5-(difluoromethyl)-1,3,4-oxadiazole] |
| 37.1 nM | FC(F)c1nnc(-c2ccc(Cn3cc(-c4ccccc4Cl)nn3)nc2)o1 [Example 44, 2-(6-((4-(2-chlorophenyl)-1H-1,2,3-triazol-1-yl)methyl)pyridin-3-yl)-5-(difluoromethyl)-1,3,4-oxadiazole] |
| 33.5 nM | FC(F)c1nnc(-c2ccc(Cn3cc(-c4cccc(Cl)c4)nn3)nc2)o1 [Example 45, 2-(6-((4-(3-chlorophenyl)-1H-1,2,3-triazol-1-yl)methyl)pyridin-3-yl)-5-(difluoromethyl)-1,3,4-oxadiazole] |
| 37.9 nM | FC(F)c1nnc(-c2ccc(Cn3cc(-c4ccc(Cl)c(Cl)c4)nn3)nc2)o1 [Example 46, 2-(6-((4-(3,4-dichlorophenyl)-1H-1,2,3-triazol-1-yl)methyl)pyridin-3-yl)-5-(difluoromethyl)-1,3,4-oxadiazole] |
| 25.7 nM | FC(F)c1nnc(-c2ccc(Cn3cc(-c4cc(Cl)cc(Cl)c4)nn3)nc2)o1 [Example 47, 2-(6-((4-(3,5-dichlorophenyl)-1H-1,2,3-triazol-1-yl)methyl)pyridin-3-yl)-5-(difluoromethyl)-1,3,4-oxadiazole] |
| 66.7 nM | Fc1cccc(F)c1-c1cn(Cc2ccc(-c3nnc(C(F)F)o3)cn2)nn1 [Example 49, 2-(difluoromethyl)-5-(6-((4-(2,6-difluorophenyl)-1H-1,2,3-triazol-1-yl)methyl)pyridin-3-yl)-1,3,4-oxadiazole] |

| Structure (SMILES) | IC50 |
| --- | --- |
| O=C(c1cn(Cc2ccc(-c3nnc(C(F)F)o3)cc2)c2ccccc12)C(F)F [Example 5, 1-(1-(4-(5-(difluoromethyl)-1,3,4-oxadiazol-2-yl)benzyl)-1H-indol-3-yl)-2,2-difluoroethanone] | 239 nM |
| Cc1cccc2nnn(Cc3ccc(-c4nnc(C(F)F)o4)cc3)c12 [Example 12] | 190 nM |
